The values below come from PMC11532494 (Nature Communications, 2024).

For test [1], the target named is T1, BsAcuC (2c) (Bacillus subtilis, UniProt P39067).
T1 construct: made in house; host or cells: E. coli BL21 (DE3)
T1 sequence (P39067 1-387): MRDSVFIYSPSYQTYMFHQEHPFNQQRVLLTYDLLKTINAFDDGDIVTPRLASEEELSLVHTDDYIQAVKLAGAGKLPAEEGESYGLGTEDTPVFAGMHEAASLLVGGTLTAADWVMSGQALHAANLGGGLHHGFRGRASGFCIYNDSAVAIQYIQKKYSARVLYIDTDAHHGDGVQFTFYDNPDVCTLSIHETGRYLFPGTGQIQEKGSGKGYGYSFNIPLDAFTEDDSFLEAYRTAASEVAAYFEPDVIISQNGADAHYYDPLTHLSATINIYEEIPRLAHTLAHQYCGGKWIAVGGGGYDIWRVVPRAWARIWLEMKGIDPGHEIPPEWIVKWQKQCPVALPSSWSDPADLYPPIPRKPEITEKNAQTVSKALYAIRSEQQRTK
In words: Acetyl-polyamine deacetylase assay. The conditions noted are these: BsAcuC (2c) 3µM; single samples (replicates). The test is classed as biochemical.

In test [2] the test system is VcHdaH (5b). The test is described as follows: Acetyl-polyamine deacetylase assay. The conditions noted are these: VcHdaH (5b) 6µM; single samples (replicates). In kind it is biochemical, Vibrio cholerae.
Test [3] addresses KpHdaH (1b) (Klebsiella pneumoniae, UniProt A0A377Z5F6). In kind it is biochemical. The settings on record: KpKDAC (1b); single samples (replicates).
Test [4] concerns the target LcApaH (3) (Legionella cherrii, UniProt A0A0W0SGS1). In kind it is biochemical.
The test system of test [5] is VsHdaH (1b). In kind it is biochemical, Vibrio sp. The settings on record: VsHdaH (1b) 3µM; single samples (replicates).
Test [6] relates to RsPrpH (1b). The test is described as follows: Acetyl-polyamine deacetylase assay. The settings on record: RsPrpH 3µM; single samples (replicates). In kind it is biochemical, Rhizorhabdus sp.
Test [7] deals with PA1409 (Pseudomonas aeruginosa, UniProt Q9I3T5). The test is described as follows: Acetyl-polyamine deacetylase assay (positive control). The test is classed as biochemical. The conditions noted are these: for A1-A2: absorbance difference between the two time points; for A1-A2 / (A1-A2)-B: sheet Figure 2d; for (A1-A2)-B: absorbance difference minus mean blank; for acetate released, g/l / acetate released, mM / mM normalized to enzyme concentration: PA1409 (positive control enzyme), single samples (replicates).
PA1409, sequence (Q9I3T5 whole entry): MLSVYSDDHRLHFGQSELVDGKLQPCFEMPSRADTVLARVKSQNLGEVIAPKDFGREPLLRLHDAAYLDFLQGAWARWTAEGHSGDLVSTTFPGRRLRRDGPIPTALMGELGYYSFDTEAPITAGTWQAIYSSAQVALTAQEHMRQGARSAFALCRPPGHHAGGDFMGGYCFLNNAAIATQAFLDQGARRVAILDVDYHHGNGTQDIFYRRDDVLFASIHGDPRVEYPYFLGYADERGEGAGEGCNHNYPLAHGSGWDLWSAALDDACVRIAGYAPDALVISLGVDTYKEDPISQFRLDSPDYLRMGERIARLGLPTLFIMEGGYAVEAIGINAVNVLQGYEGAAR

Test [8] has as its target RwDmhA (1b) (Rhizorhabdus wittichii, UniProt A0A067XIQ6). The test is classed as biochemical. The conditions noted are these: RwDmhA (1b) 3µM; single samples (replicates).
Test [9] has as its target PsApaH (4) (Pseudomonas sp. M30-35, UniProt A0A1Y0KY79). In words: Acetyl-polyamine deacetylase assay. The test is classed as biochemical. The conditions noted are these: single samples (replicates).
Test [10] addresses LpApaH (3) (Legionella pneumophila, UniProt A0A2S6EWV0). In kind it is biochemical.

Where “and” joins values, the source holds several entries; their conditions need not be identical. Equal entries are not always repeated.

LpApaH (3), sequence (A0A2S6EWV0 1-426): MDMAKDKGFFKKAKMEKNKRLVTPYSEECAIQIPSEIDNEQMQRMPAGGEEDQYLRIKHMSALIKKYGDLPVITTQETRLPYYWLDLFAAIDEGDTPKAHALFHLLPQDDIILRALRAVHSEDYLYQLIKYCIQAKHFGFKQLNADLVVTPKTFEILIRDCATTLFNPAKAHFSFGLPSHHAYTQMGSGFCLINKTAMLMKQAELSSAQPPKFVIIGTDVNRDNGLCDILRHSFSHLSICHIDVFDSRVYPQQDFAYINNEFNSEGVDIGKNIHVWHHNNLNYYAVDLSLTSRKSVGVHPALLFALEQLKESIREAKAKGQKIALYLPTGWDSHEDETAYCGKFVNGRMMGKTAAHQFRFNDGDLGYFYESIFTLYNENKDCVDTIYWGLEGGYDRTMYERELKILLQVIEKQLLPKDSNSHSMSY
RwDmhA (1b), sequence (A0A067XIQ6 1-369): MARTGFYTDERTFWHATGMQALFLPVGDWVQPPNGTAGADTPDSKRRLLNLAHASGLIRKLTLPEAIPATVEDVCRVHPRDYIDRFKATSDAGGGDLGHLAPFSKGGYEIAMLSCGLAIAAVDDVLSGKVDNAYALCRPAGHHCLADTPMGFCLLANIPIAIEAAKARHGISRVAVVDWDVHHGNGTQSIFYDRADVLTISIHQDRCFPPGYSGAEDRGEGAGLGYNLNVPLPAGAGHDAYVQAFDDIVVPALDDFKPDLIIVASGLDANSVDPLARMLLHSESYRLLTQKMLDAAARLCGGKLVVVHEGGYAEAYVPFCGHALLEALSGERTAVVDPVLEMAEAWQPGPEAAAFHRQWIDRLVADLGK
KpHdaH (1b), sequence (A0A377Z5F6 1-371): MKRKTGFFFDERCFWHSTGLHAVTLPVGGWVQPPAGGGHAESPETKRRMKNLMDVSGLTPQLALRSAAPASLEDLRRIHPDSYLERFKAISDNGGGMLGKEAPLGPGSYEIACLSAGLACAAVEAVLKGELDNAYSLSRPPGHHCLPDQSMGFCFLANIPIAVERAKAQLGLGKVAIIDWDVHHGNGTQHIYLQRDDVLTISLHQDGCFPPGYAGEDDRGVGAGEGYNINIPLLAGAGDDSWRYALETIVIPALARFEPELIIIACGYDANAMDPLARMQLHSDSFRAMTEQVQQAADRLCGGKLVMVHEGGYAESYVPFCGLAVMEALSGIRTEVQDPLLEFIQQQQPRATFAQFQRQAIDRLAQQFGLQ
PsApaH (4), sequence (A0A1Y0KY79 1-342 limits assumed): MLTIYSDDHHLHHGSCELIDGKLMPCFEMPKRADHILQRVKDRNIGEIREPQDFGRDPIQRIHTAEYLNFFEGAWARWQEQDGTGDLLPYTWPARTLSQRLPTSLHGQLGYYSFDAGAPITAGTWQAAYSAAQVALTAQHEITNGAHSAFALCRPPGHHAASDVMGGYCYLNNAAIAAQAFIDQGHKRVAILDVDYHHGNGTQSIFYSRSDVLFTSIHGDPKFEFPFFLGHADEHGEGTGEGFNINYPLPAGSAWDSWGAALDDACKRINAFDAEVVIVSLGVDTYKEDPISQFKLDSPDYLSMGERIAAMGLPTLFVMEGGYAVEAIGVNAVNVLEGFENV
LcApaH (3), sequence (A0A0W0SGS1 1-425): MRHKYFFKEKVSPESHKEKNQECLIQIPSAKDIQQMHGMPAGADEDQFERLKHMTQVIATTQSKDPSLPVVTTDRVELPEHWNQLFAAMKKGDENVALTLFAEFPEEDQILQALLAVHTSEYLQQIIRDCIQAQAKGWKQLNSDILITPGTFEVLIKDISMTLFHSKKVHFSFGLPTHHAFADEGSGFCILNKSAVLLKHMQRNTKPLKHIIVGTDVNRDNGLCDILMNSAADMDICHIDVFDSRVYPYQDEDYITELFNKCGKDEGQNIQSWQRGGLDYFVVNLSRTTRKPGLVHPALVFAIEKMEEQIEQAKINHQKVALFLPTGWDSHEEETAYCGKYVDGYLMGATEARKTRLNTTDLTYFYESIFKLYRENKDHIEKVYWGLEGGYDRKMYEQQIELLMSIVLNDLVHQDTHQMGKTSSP

Turning to `CC(=O)NCCCCN` [N1-acetyl-putrescine], the “acetate released, g/l” value in test [1] was 0.001436 g/L and 0.00248 g/L and -0.003264 g/L; in test [2], -0.003786 g/L and 0.0001305 g/L and 0.01136 g/L; in test [3], 0.01615 g/L and 0.02135 g/L and 0.02198 g/L; in test [4], 0.002824 g/L and 0.001479 g/L; in [5] it was 0.001436 g/L and 0.0003916 g/L and -0.0006527 g/L; in test [6], 0.003525 g/L and 0.00483 g/L and 0.003003 g/L. Besides, in [8], the “acetate released, g/l” value was 0.001436 g/L and 0.006919 g/L and 0.0009138 g/L. Further, the “acetate released, mM” value was 0.02391 mM and 0.0413 mM and -0.05435 mM in test [1]; -0.06304 mM and 0.002174 mM and 0.1891 mM in test [2]; 0.2105 mM and 0.2784 mM and 0.2865 mM in test [3]; 0.04702 mM and 0.02463 mM in test [4]; 0.02391 mM and 0.006522 mM and -0.01087 mM in [5]; 0.0587 mM and 0.08044 mM and 0.05 mM in test [6]. In addition, the “acetate released, mM” value in test [8] was 0.02391 mM and 0.1152 mM and 0.01522 mM. For the same compound, the “mM normalized to enzyme concentration” value in test [1] was 0.007971 mM and 0.01377 mM and -0.01812 mM; in test [2], -0.01051 mM and 0.0003623 mM and 0.03152 mM; in test [3], 0.02105 mM and 0.02784 mM and 0.02865 mM; in [4], 0.03135 mM and 0.01642 mM; in test [5], 0.007971 mM and 0.002174 mM and -0.003623 mM; in [6], 0.01957 mM and 0.02681 mM and 0.01667 mM. For the same compound, the “mM normalized to enzyme concentration” value in [8] is 0.007971 mM and 0.03841 mM and 0.005072 mM. Besides, in test [7], the A1-A2 was 0.278 and 0.275. For the same compound, the “(A1-A2)-B” value in test [7] was 0.21 and 0.207.
With `CC(=O)NCCCNCCCCN` [N1-acetyl-spermidine], the “acetate released, g/l” value was 0.001175 g/L and 0.0003916 g/L in test [1]; 0.0007937 g/L and 0.001587 g/L in test [9]; -0.0009138 g/L and 0.0001305 g/L in [2]; 0.007111 g/L and 0.006667 g/L in test [3]; -0.0001305 g/L in test [5]; 0.0006527 g/L and 0.002219 g/L in [6]. Further, in test [8], the “acetate released, g/l” value is -0.0001305 g/L and -0.0003916 g/L. In addition, the “acetate released, mM” value in test [1] was 0.01957 mM and 0.006522 mM; in test [9], 0.01322 mM and 0.02643 mM; in test [2], -0.01522 mM and 0.002174 mM; in test [5] it was -0.002174 mM; in test [6], 0.01087 mM and 0.03696 mM; in test [8], -0.002174 mM and -0.006522 mM. Further, the “mM normalized to enzyme concentration” value is 0.006522 mM and 0.002174 mM in test [1]; -0.002536 mM and 0.0003623 mM in test [2]; 0.02368 mM and 0.0222 mM in test [3]; -0.0007246 mM in [5]; 0.003623 mM and 0.01232 mM in test [6]; -0.0007246 mM and -0.002174 mM in test [8]. In test [7], the A1-A2 is 0.377 and 0.374. The “(A1-A2)-B” value in test [7] was 0.331 and 0.328.
In the case of `CC(=O)NCCCNCCCCNCCCN` [N1-acetyl-spermine], the “acetate released, g/l” value is 0.002742 g/L and 0.0001305 g/L in test [1]; -0.0009138 g/L and -0.003003 g/L and -0.003264 g/L in [2]; 0.02153 g/L and 0.02371 g/L and 0.03188 g/L in [3]; -0.003525 g/L and 0.003264 g/L and 0.003525 g/L in test [5]; -0.0006527 g/L and -0.0001305 g/L and -0.004569 g/L in test [6]; 0.1471 g/L and 0.1516 g/L in test [7]. In test [8], the “acetate released, g/l” value stood at 0.0001305 g/L. Moreover, the “acetate released, mM” value in [1] was 0.04565 mM and 0.002174 mM; in test [2] it was -0.01522 mM and -0.05 mM and -0.05435 mM; in test [3] it was 0.3585 mM and 0.3948 mM and 0.5309 mM; in [5], -0.0587 mM and 0.05435 mM and 0.0587 mM; in test [6] it was -0.01087 mM and -0.002174 mM and -0.07609 mM; in test [7] it was 2.449 mM and 2.524 mM. Besides, the “acetate released, mM” value in test [8] was 0.002174 mM and -0.002174 mM. In addition, the “mM normalized to enzyme concentration” value in [1] was 0.01522 mM and 0.0007246 mM; in [2], -0.002536 mM and -0.008333 mM and -0.009058 mM; in test [3] it was 0.07169 mM and 0.07895 mM and 0.1062 mM; in [5], -0.01957 mM and 0.01812 mM and 0.01957 mM; in [6], -0.003623 mM and -0.0007246 mM and -0.02536 mM; in test [7], 24.4938 mM and 25.2427 mM. Further, in test [8], the “mM normalized to enzyme concentration” value is -0.01812 mM and 0.0007246 mM and -0.0007246 mM.
With `CC(=O)NCCCNCCCCNCCCNC(C)=O` [N1/N12 diacetyl-spermine], the “acetate released, g/l” value in [1] is 0.003525 g/L and 0.003264 g/L and -0.001436 g/L; in test [2], 0.001436 g/L and 0.0001305 g/L and 0.0006527 g/L; in [3] it was 0.007868 g/L and 0.006091 g/L and 0.003807 g/L; in test [4] it was 0.00344 g/L; in test [5], 0.00248 g/L and 0.0003916 g/L; in [6], 0.002219 g/L and 0.001175 g/L. For the same compound, the “acetate released, g/l” value was 0.2048 g/L and 0.2032 g/L in test [7]; 0.003439 g/L and 0.00291 g/L in [10]; 0.001697 g/L and 0.004569 g/L in [8]. Further, the “acetate released, mM” value was 0.0587 mM and 0.05435 mM and -0.02391 mM in test [1]; 0.02391 mM and 0.002174 mM and 0.01087 mM in [2]; 0.131 mM and 0.1014 mM and 0.0634 mM in test [3]; 0.06 mM in test [4]; 0.0413 mM and 0.006522 mM in test [5]; 0.03696 mM and 0.01957 mM in test [6]. The “acetate released, mM” value in [7] is 3.41 mM and 3.383 mM; in [10], 0.05727 mM and 0.04846 mM; in test [8] it was 0.02826 mM and 0.07609 mM. In addition, the “mM normalized to enzyme concentration” value is 0.01957 mM and 0.01812 mM and -0.007971 mM in test [1]; 0.003986 mM and 0.0003623 mM and 0.001812 mM in test [2]; 0.0262 mM and 0.02029 mM and 0.01268 mM in [3]; 0.06 mM in test [4]; 0.01377 mM and 0.002174 mM and 0.003623 mM in [5]; 0.01232 mM and 0.006522 mM in [6]. The “mM normalized to enzyme concentration” value in [7] was 34.0974 mM and 33.8331 mM; in test [10], 0.02863 mM and 0.02423 mM; in test [8], 0.00942 mM and 0.02536 mM.
